Data from article PMC4929166, “Pharmacological evaluation of synthetic cannabinoids identified as constituents of spice” (Forensic Toxicology, 2016).
Read-outs that look alike come from different tables or passages of the source.

Key:
[1] = molecular target: T1, human GPR55 (Homo sapiens, UniProt Q9Y2T6); conditions: read-out: Human GPR55 IC50; ref [48]; cited from earlier work
T1 construct: β-galactosidase enzyme fragment (PathHunter complementation tag)

[2] = molecular target: T2, human GPR18 (Homo sapiens, UniProt Q14330); design: method as in PMID 22916707; conditions: read-out: Human GPR18 IC50; ref [47]; cited from earlier work
T2 construct: β-galactosidase enzyme fragment (PathHunter complementation tag)
T2 sequence (Q14330 1-331): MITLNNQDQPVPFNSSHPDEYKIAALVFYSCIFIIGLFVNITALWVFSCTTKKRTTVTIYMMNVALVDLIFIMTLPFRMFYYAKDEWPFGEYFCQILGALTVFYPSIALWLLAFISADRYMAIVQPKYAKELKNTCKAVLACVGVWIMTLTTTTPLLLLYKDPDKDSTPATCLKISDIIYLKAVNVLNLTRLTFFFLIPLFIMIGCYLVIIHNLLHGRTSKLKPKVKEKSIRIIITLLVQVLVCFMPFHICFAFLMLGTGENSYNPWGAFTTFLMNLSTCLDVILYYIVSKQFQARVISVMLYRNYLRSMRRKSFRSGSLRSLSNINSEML

[3] = molecular target: CB2; conditions: Fig. 1, standard agonists; ref [14]; cited from earlier work
[4] = molecular target: CB1; conditions: Fig. 1, standard agonists; ref [14]; cited from earlier work
[5] = molecular target: Human CB2; conditions: cited from earlier work; for Ki: read-out: Ki Human CB2 (literature) (converted)
[6] = molecular target: T3, CB2 receptor (Homo sapiens, UniProt P34972); experiment: biochemical; assay type: binding; design: expressed in transfected cells; host or cells: CHO cells (membrane preparation)
T3 sequence (P34972 whole entry): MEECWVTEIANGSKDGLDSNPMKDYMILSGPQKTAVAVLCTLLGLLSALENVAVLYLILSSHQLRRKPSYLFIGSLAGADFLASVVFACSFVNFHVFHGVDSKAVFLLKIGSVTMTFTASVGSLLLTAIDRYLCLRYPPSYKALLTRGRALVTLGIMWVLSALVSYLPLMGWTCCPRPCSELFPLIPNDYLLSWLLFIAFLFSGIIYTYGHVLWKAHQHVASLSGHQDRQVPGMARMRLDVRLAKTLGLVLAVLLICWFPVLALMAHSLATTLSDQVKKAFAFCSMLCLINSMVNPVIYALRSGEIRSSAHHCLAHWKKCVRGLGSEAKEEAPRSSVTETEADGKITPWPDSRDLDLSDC

[7] = molecular target: T4, CB1 receptor (Homo sapiens, UniProt P21554); experiment: biochemical; assay type: binding; design: expressed in transfected cells; host or cells: CHO cells (membrane preparation); conditions: for CB1 selectivity Ki CB2/KiCB1: Table S1, selectivity index from Ki values
T4 sequence (P21554 whole entry): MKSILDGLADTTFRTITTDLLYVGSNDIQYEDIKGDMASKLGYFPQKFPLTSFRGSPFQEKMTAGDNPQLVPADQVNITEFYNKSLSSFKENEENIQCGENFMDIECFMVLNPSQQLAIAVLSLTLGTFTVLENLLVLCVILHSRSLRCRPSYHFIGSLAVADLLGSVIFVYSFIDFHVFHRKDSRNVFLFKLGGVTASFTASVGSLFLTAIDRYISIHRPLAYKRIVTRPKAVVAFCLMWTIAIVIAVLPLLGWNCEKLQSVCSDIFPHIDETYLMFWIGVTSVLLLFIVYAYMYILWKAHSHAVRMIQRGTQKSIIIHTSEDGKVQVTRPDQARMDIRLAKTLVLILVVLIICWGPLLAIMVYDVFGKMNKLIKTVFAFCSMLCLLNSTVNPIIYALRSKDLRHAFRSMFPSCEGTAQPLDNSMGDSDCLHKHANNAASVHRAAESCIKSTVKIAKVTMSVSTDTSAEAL

[8] = molecular target: T2, human GPR18; experiment: β-Arrestin recruitment assay (PathHunter) at GPR18; assay type: cell-based; conditions: for Human GPR18 % activation: percent in brackets beside EC50 >10 µM; for Human GPR18 % inhibition: percent in brackets beside IC50
Method: (§1) Recruitment of β-arrestin to the respective receptor was detected by using β-galactosidase enzyme fragment complementation technology (β-arrestin PathHunter™ assay, DiscoverX, Fremont, CA, USA) as previously described. Data were obtained from three independent experiments, performed in duplicates. Data were analyzed using Graph Pad Prism Version 4.02 (San Diego, CA, USA).

[9] = molecular target: Human CB1; conditions: cited from earlier work; for Ki: read-out: Ki Human CB1 (literature) (converted)
[10] = molecular target: T1, human GPR55; experiment: β-Arrestin recruitment assay (PathHunter) at GPR55; assay type: cell-based; conditions: for Human GPR55 % activation: percent in brackets beside EC50 >10 µM; for Human GPR55 % inhibition: percent in brackets beside IC50
Method: as §1

[11] = tested on: Human CB1; conditions: ref Banister et al. [28]; read-out: EC50 Human CB1 (literature, functional assay) (converted); cited from earlier work
[12] = molecular target: T3, CB2 receptor; experiment: cAMP accumulation assay in CHO cells expressing CB2; assay type: cell-based; design: expressed in transfected cells; host or cells: CHO cells; conditions: for efficacy at CB2 receptor (in words): cAMP accumulation, forskolin 10 µM, test concentration 1 µM or 10 µM, normalized to CP55,940
[13] = molecular target: T4, CB1 receptor; experiment: cell-based; assay type: cell-based; design: expressed in transfected cells; host or cells: CHO cells
[14] = tested on: Human CB2; conditions: ref Banister et al. [28]; read-out: EC50 Human CB2 (literature, functional assay) (converted); cited from earlier work
[15] = versus 0.1 nM [3H]CP55,940, CHO cell membranes, mean ± SEM of three to five experiments, read-out: Ki ± SEM Human CB2
[16] = versus 0.1 nM [3H]CP55,940, CHO cell membranes, mean ± SEM of three to five experiments, read-out: Ki ± SEM Human CB1
[17] = Human GPR55 IC50, β-arrestin assay, antagonist mode
[18] = cAMP accumulation, forskolin 10 µM, test concentration 1 µM or 10 µM, normalized to CP55,940
[19] = Table S1, selectivity index from Ki values

T1 sequence (Q9Y2T6 whole entry, the tested form may be a part): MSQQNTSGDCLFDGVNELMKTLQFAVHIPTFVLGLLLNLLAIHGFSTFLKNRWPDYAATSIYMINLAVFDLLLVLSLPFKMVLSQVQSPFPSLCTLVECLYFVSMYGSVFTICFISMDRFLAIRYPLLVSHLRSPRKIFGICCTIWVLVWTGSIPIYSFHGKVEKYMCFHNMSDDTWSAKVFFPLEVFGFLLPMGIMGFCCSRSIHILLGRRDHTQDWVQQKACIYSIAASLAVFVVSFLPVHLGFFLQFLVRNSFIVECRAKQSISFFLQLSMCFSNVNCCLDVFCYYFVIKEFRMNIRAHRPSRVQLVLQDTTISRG

CCCCCCC(C)(C)c1ccc([C@@H]2CC(O)CC[C@H]2CCCO)c(O)c1 (single isomer, unassigned; (-)) [Compound 2, (−)-cis-3-[2-hydroxy-4-(1,1-dimethylheptyl)phenyl]-trans-4-(3-hydroxypropyl)cyclohexanol]
IC50 [1]: 1610 nM
IC50 [2]: 5990 nM

CCCCCn1cc(C(=O)c2cccc3ccccc23)c2ccccc21 [Compound 3, JWH-018]
Ki [3]: 2.9 nM
Ki [4]: 9 nM

CCCCCn1cc(C(=O)Nc2cccc3ccccc23)c2ccccc21 [Compound 4, NNEI]
Ki ([5]; ref Blaazer et al. [33]): 100 nM
Ki [6, 15]: 21.9 ± 5.5 nM
CB1 selectivity Ki CB2/KiCB1 [7]: 12.0
Ki [7, 16]: 1.82 ± 0.35 nM
EC50 [8]: > 10000 nM
IC50 [8]: > 10000 nM
Human GPR18 % activation ([8]; β-arrestin assay): 42%
Human GPR18 % inhibition ([8]; β-arrestin assay): −15%
pKi value at the CB1 receptor ([9]; ref Blaazer et al. [33]): 8.9
Ki ([9]; ref Blaazer et al. [33]): 1.25 nM
EC50 [10]: > 10000 nM
IC50 [10, 17]: > 10000 nM
Human GPR55 % activation ([10]; β-arrestin assay): 26%
Human GPR55 % inhibition ([10]; β-arrestin assay): 30%

CCCCCn1cc(C(=O)Oc2cccc3cccnc23)c2ccccc21 [Compound 24, PB-22]
EC50 [11]: 5.1 nM
Ki [6, 15]: 0.433 ± 0.106 nM
CB1 selectivity Ki CB2/KiCB1 [7]: 1.4
Ki [7, 16]: 0.318 ± 0.071 nM
EC50 [8]: > 10000 nM
IC50 [8]: > 10000 nM
Human GPR18 % activation ([8]; β-arrestin assay): −18%
Human GPR18 % inhibition ([8]; β-arrestin assay): 26%
efficacy at CB2 receptor (in words) [12]: partial agonist with similar efficacy as Δ^9-THC
efficacy at CB1 receptor (in words) [13, 18]: partial agonist with similar efficacy as Δ^9-THC
EC50 [14]: 2.8 nM
EC50 [10]: > 10000 nM
IC50 [10, 17]: > 10000 nM
Human GPR55 % activation ([10]; β-arrestin assay): 15%
Human GPR55 % inhibition ([10]; β-arrestin assay): -12%

CCCCCn1cc(C(=O)C2C(C)(C)C2(C)C)c2ccccc21 [Compound 37, UR-144]
Ki ([5]; ref Frost et al. [40]): 1.8 nM
CB2 selectivity Ki CB1/KiCB2 [6, 19]: 37.5
Ki [6, 15]: 1.49 ± 0.25 nM
Ki [7, 16]: 55.9 ± 6.5 nM
EC50 [8]: > 10000 nM
IC50 [8]: > 10000 nM
Human GPR18 % activation ([8]; β-arrestin assay): 17%
Human GPR18 % inhibition ([8]; β-arrestin assay): 14%
Ki ([9]; ref Frost et al. [40]): 150 nM
EC50 [10]: > 10000 nM
IC50 [10, 17]: 6700 ± 1650 nM
Human GPR55 % activation ([10]; β-arrestin assay): −5%

CC1(C)C(C(=O)c2cn(CCCC(F)(F)F)c3ccccc23)C1(C)C [Compound 41, XLR-12]
Ki ([5]; ref Frost et al. [40]): 0.09 nM
CB2-selectivity previously reported ([5]; ref [40]): 167 fold
CB2 selectivity Ki CB1/KiCB2 [6, 19]: 52.6
Ki [6, 15]: 0.831 ± 0.331 nM
Ki [7, 16]: 43.7 ± 5.9 nM
EC50 [8]: > 10000 nM
IC50 [8]: > 10000 nM
Human GPR18 % activation ([8]; β-arrestin assay): 27%
Human GPR18 % inhibition ([8]; β-arrestin assay): 13%
EC50 [12]: 0.391 nM
CB2-selectivity in functional assay (EC50 CB1 vs CB2) ([12]; cAMP accumulation EC50 values): 30 fold
efficacy at CB2 receptor (in words) [12]: lower efficacy than Δ^9-THC
efficacy at CB1 receptor (in words) [13, 18]: lower efficacy than Δ^9-THC
EC50 ([13]; full concentration response curve, read-out: CB1: EC50, inhibition of cAMP accumulation): 11.7 ± 6.5 nM
Ki ([9]; ref Frost et al. [40]): 15 nM
EC50 [10]: > 10000 nM
IC50 [10, 17]: 4560 ± 1970 nM
Human GPR55 % activation ([10]; β-arrestin assay): −5%

CN1CCCCC1Cn1cc(C(=O)C2C(C)(C)C2(C)C)c2ccccc21 (stereo not shown) [Compound 43, AB005]
Ki ([5]; ref Frost et al. [40]): 0.48 nM
CB2 selectivity Ki CB1/KiCB2 [6]: 57.1
Ki [6]: 1.04 nM
Ki [7]: 59.4 nM
EC50 [8]: > 10000 nM
IC50 [8]: > 10000 nM
Human GPR18 % activation ([8]; β-arrestin assay): −38%
Human GPR18 % inhibition ([8]; β-arrestin assay): −2%
efficacy at CB2 receptor (in words) [12]: lower efficacy than Δ^9-THC
efficacy at CB1 receptor (in words) [13]: lower efficacy than Δ^9-THC
Ki ([9]; ref Frost et al. [40]): 5.5 nM
EC50 [10]: > 10000 nM
IC50 [10, 17]: > 10000 nM
Human GPR55 % activation ([10]; β-arrestin assay): 16%
Human GPR55 % inhibition ([10]; β-arrestin assay): 39%

CC1(C)C(C(=O)c2cn(CCN3CCOCC3)c3ccccc23)C1(C)C [Compound 45, A-796,260]
Ki ([5]; ref Frost et al.[29]): 4.4 nM
Ki [6, 15]: 8.02 ± 0.77 nM
EC50 [8]: > 10000 nM
IC50 [8]: > 10000 nM
Human GPR18 % activation ([8]; β-arrestin assay): 20%
Human GPR18 % inhibition ([8]; β-arrestin assay): −10%
EC50 [10]: > 10000 nM
Human GPR55 % activation ([10]; β-arrestin assay): −1%

CC1(C)C(C(=O)c2cn(CC3CCOCC3)c3ccccc23)C1(C)C [Compound 46, A-834,735]
Ki ([5]; ref Frost et al.[29]): 0.21 nM
Ki [6, 15]: 0.566 ± 0.153 nM
EC50 [8]: > 10000 nM
IC50 [8]: > 10000 nM
Human GPR18 % activation ([8]; β-arrestin assay): 6%
Human GPR18 % inhibition ([8]; β-arrestin assay): 6%
EC50 [10]: > 10000 nM
IC50 ([10]; Human GPR55 IC50 (extrapolated), Extrapolated values, a full curve could not be determined due to limited solubility): 6880 ± 1510 nM
Human GPR55 % activation ([10]; β-arrestin assay): 8%

COc1cccc2c(C(=O)C3C4(C)CCC(C4)C3(C)C)c(C)n(CCN3CCOCC3)c12 (stereo not shown) [Compound 48, MN-25]
Ki ([5]; ref Wroblenski et al.[39]): 11 nM
CB2 selectivity Ki CB1/KiCB2 [6, 19]: 282
Ki [6, 15]: 2.77 ± 1.59 nM
Ki [7, 16]: 780 ± 66 nM
EC50 ([8]; read-out: Human GPR18 EC50, β-arrestin assay, agonist mode): > 10000 nM
IC50 ([8]; read-out: Human GPR18 IC50, β-arrestin assay, antagonist mode): > 10000 nM
Human GPR18 % activation ([8]; β-arrestin assay): −12%
Human GPR18 % inhibition ([8]; β-arrestin assay): 30%
Ki ([9]; ref Wroblenski et al.[39]): 245 nM
EC50 ([10]; read-out: Human GPR55 EC50, β-arrestin assay, agonist mode): > 10000 nM
IC50 ([10]; read-out: Human GPR55 IC50, β-arrestin assay, antagonist mode): > 10000 nM
Human GPR55 % activation ([10]; β-arrestin assay): −8%
Human GPR55 % inhibition ([10]; β-arrestin assay): 47%

CCCCCn1cc(C(=O)Nc2ccc3ccccc3c2)c2ccccc21 [non-fluorinated derivative of compound 7, reference compound]
pKi value at the CB1 receptor ([9]; ref Blaazer et al. [33]): 7.2
